Results on 52 compounds are retold here after article PMC6301270 (MedChemComm, 2018).

Structures are written as SMILES.

This experiment has as its system T.b. brucei (strain 427) bloodstream form parasites. The experiment can be described thus: T.b. brucei single concentration screen (10 μM). The following applies: Trypanosoma brucei, read-out: T.b.brucei % viability (10 µM).
A word on the viability: it is a read-out of living cells in per cent, often relative to untreated cells. For `FC(F)(F)c1ccc(N(c2cccnc2)C2CCN(c3ccc(C(F)(F)F)cn3)CC2)cc1` [MMV689243, FC(F)(F)c1ccc(cc1)N(C2CCN(CC2)c3ccc(cn3)C(F)(F)F)c4cccnc4], the viability at 10 µM amounted to 103%. For `COc1cc2ncnc(NC3CCN(Cc4ccccc4)CC3)c2cc1OC` [MMV006741, COc1cc2ncnc(NC3CCN(Cc4ccccc4)CC3)c2cc1OC], the viability at 10 µM worked out at 103%. To `CCOc1ccc(-c2nc(CNCCc3ccc(F)cc3)cs2)cc1` [MMV688938, CCOc1ccc(cc1)c2nc(CNCCc3ccc(F)cc3)cs2] belongs 63%. Turning to `Cc1nc(-c2cccc(NCc3ccccc3)c2)[nH]c1C` [MMV023227, Cc1nc([nH]c1C)c2cccc(NCc3ccccc3)c2], the viability at 10 µM turned out to be 102%. With `CC(C(=O)Nc1ccc2oc(-c3ccncc3)nc2c1)c1ccccc1` (stereo not shown) [MMV688471, CC(C(=O)Nc1ccc2oc(nc2c1)-c1ccncc1)c1ccccc1], the viability at 10 µM was found to be 67%. As to `Cc1ccc2[nH]c3c(NCCN(C)C)ncnc3c2c1` [MMV006372, CN(C)CCNc1ncnc2c3cc(C)ccc3[nH]c12], the viability at 10 µM was found to be 86%. To `N#Cc1nc(-c2ccccc2)oc1S(=O)(=O)c1ccc(Cl)cc1` [MMV676412, Clc1ccc(cc1)S(=O)(=O)c2oc(nc2C#N)c3ccccc3] belongs 28%. The value for `COc1ccccc1OCCCCn1c(C2CC2)nc2ccccc21` [MMV676474, COc1ccccc1OCCCCn2c(nc3ccccc23)C4CC4] was 93%; that for `Nc1ncnc2c1c(-c1cnc3ccccc3c1)nn2CC1CCNCC1` [MMV688411, Nc1ncnc2n(CC3CCNCC3)nc(-c3cnc4ccccc4c3)c12] was 104%. Take `FC(F)(F)c1nnc2ccc(Cl)nn12` [MMV069458, FC(F)(F)c1nnc2ccc(Cl)nn12]: the viability at 10 µM came out at 100%. With `CC(C)(C)n1nc(-c2ccccc2)c2c(N)ncnc21` [MMV688548, CC(C)(C)n1nc(-c2ccccc2)c2c(N)ncnc12], the viability at 10 µM was 81%.

With `CNc1snc(C)c1C(=O)NCCOc1ccc(OC)cc1` [MMV688554, CNc1snc(C)c1C(=O)NCCOc2ccc(OC)cc2], the viability at 10 µM amounted to 92%. The value for `O=C(Nc1ccnc(-c2cccnc2)n1)c1cc(C(F)(F)F)cc(C(F)(F)F)c1` [MMV019838, FC(F)(F)c1cc(cc(c1)C(F)(F)F)C(=O)Nc2ccnc(n2)c3cccnc3] was 106%. The value for `CCN(CC)S(=O)(=O)c1ccc(Cl)c(C(=O)Nc2ccc3nc(C)sc3c2)c1` [MMV019721, CCN(CC)S(=O)(=O)c1ccc(Cl)c(c1)C(=O)Nc2ccc3nc(C)sc3c2] was 62%. `CCS(=O)(=O)N(Cc1ccco1)Cc1cc2ccc(C)cc2nc1O` [MMV676398, CCS(=O)(=O)N(Cc1occc1)Cc2cc3ccc(C)cc3nc2O]: the viability at 10 µM came to 86%. `CO/C=C(/C(=O)OC)c1ccccc1Oc1cc(Oc2ccccc2C#N)ncn1` [MMV021057, CO\C=C(\C(=O)OC)/c1ccccc1Oc2cc(Oc3ccccc3C#N)ncn2]: the viability at 10 µM is 103%. In the case of `Nc1ncnc2c1ncn2C[C@@H](O)[C@@H](O)C(=O)O` [MMV689255, Nc1ncnc2c1ncn2C[C@@H](O)[C@@H](O)C(=O)O], the viability at 10 µM came out at 111%. With `Nc1ncnc2[nH]nc(Cc3cccc4ccccc34)c12` [MMV688469, Nc1ncnc2[nH]nc(Cc3cccc4ccccc34)c12], the viability at 10 µM worked out at 98%. To `O=C1COCc2ccc(Br)cc2N1Cc1ccc(C(F)(F)F)cc1` [MMV032995, FC(F)(F)c1ccc(CN2C(=O)COCc3ccc(Br)cc23)cc1] belongs 113%. The value for `O=C(CN1CCOCC1)Nc1ccc2ncnc(Nc3ccc(OCc4cccc(F)c4)c(Cl)c3)c2c1` [MMV688274, Fc1cccc(COc2ccc(Nc3ncnc4ccc(NC(=O)CN5CCOCC5)cc34)cc2Cl)c1] was 63%; that for `CN1CCN(c2cc(-c3ccc(F)cc3)nc(-c3ccncc3)n2)CC1` [MMV688888, CN1CCN(CC1)c2cc(nc(n2)c3ccncc3)c4ccc(F)cc4] was 92%; that for `Cc1nn(C(=O)Nc2cccc(C(F)(F)F)c2)c(C)c1Sc1ncccn1` [MMV688552, CC(C(SC1=NC=CC=N1)=C2C)=NN2C(NC3=CC=CC(C(F)(F)F)=C3)=O] was 96%. Turning to `COc1ccc(Cn2cnc3c(-c4ccco4)nc(Cl)nc32)cc1` [MMV687170, COc1ccc(Cn2cnc3c(nc(Cl)nc23)c4occc4)cc1], the viability at 10 µM stood at 97%. The value for `CC(=O)NCC1CN(c2ccc(-c3ccc(CNCc4cn[nH]n4)cc3)c(F)c2)C(=O)O1` (stereo not shown) [MMV688327, CC(=O)NCC1CN(C(=O)O1)c2ccc(c(F)c2)c3ccc(CNCc4cn[nH]n4)cc3] was 68%; that for `Cc1nc(-c2ccccn2)nc(N2CCC(Cc3ccccc3)C2)c1Cl` (stereo not shown) [MMV659004, Cc1nc(nc(N2CCC(Cc3ccccc3)C2)c1Cl)c4ccccn4] was 109%; that for `Cc1cc(Cl)c(S(=O)(=O)N2CCCC2)cc1OCC(=O)NC1CCCCC1` [MMV006833, Cc1cc(Cl)c(cc1OCC(=O)NC2CCCCC2)S(=O)(=O)N3CCCC3] was 98%.

In the case of `O=C(c1ccc(NCCO)cc1)C1C[C@H]1c1ccc(Cl)cc1` (stereo partly shown) [MMV676877, OCCNc1ccc(cc1)C(=O)C2C[C@H]2c3ccc(Cl)cc3], the viability at 10 µM worked out at 102%. For the compound `c1ccc(Oc2ccc(-c3cc(CN4CCOCC4)[nH]n3)cc2)cc1` [MMV676161, C(N1CCOCC1)c2cc(n[nH]2)c3ccc(Oc4ccccc4)cc3], the viability at 10 µM was determined as 43%. `Cc1cc(C)nc(-n2nc(C)cc2Nc2ccccc2)n1` [MMV062221, Cc1cc(C)nc(n1)n2nc(C)cc2Nc3ccccc3]: the viability at 10 µM was determined as 103%. For the compound `Brc1c(-c2ccc3c(c2)OCO3)nc2ncccn12` [MMV676377, Brc1c(nc2ncccn12)c3ccc4OCOc4c3], the viability at 10 µM stood at 96%. Regarding `CCNC(=O)C(C)Nc1nc(-c2cccnc2)nc2sc(C)c(C)c12` (stereo not shown) [MMV1037162, CCNC(=O)C(C)Nc1nc(nc2sc(C)c(C)c12)c3cccnc3], the viability at 10 µM was 85%. For the compound `NCC(=O)N1CCn2c(nc(-c3ccccc3)c2Nc2ccc3c(c2)OCO3)C1` [MMV011691, NCC(=O)N1CCn2c(C1)nc(c2Nc3ccc4OCOc4c3)c5ccccc5], the viability at 10 µM turned out to be 120%.

Turning to `COc1ccc(-c2nnc3ccc(-c4cccc(C(C)C)c4)cn23)cc1OC` [MMV688313, COc1ccc(cc1OC)-c1nnc2ccc(cn12)-c1cccc(c1)C(C)C], the viability at 10 µM worked out at 92%.

On to `CCc1nn(C)c(C(=O)NCc2ccc(Oc3ccc(C)cc3)cc2)c1Cl` [MMV688934, CCc1nn(C)c(C(=O)NCc2ccc(Oc3ccc(C)cc3)cc2)c1Cl], for which the viability at 10 µM amounted to 101%. To `Cc1ccc(S(=O)(=O)N2CCN(C(=O)c3cc(-c4ccccc4)[nH]n3)CC2)cc1` [MMV019742, Cc1ccc(cc1)S(=O)(=O)N2CCN(CC2)C(=O)c3cc([nH]n3)c4ccccc4] belongs 96%; to `O=C1O[C@@H](CO)CN1c1cc(F)c(C2=CCN(Cc3ccccc3)CC2)c(F)c1` [MMV687729, OC[C@H]1CN(C(=O)O1)c2cc(F)c(C3=CCN(Cc4ccccc4)CC3)c(F)c2], 101%. As for `C[C@H](C(N)=O)N1CCCC[C@H]1c1ccc(OCc2cccc(F)c2)cc1` [MMV676269, C[C@@H](N1CCCC[C@H]1c2ccc(OCc3cccc(F)c3)cc2)C(=O)N], the viability at 10 µM stood at 92%. As to `COC(=O)c1c(NC(=O)c2cc3ccccc3oc2=O)sc2c1CCN(Cc1ccccc1)C2` [MMV676480, COC(=O)c1c2CCN(Cc3ccccc3)Cc2sc1NC(=O)C4=Cc5ccccc5OC4=O], the viability at 10 µM came to 101%. The value for `CCC(Sc1nc2ccccc2o1)C(=O)Nc1nccs1` (stereo not shown) [MMV676383, CCC(Sc1oc2ccccc2n1)C(=O)Nc3nccs3] was 86%. To `Clc1cccc(C(c2ccc(CN3CCNCC3)cc2)n2ccnc2)c1` (stereo not shown) [MMV663250, Clc1cccc(c1)C(c2ccc(CN3CCNCC3)cc2)n4ccnc4] belongs 75%; to `Cc1cccc(NC(=O)c2cc(S(=O)(=O)N(C)c3ccc(F)cc3)ccc2Cl)n1` [MMV676528, CN(c1ccc(F)cc1)S(=O)(=O)c2ccc(Cl)c(c2)C(=O)Nc3cccc(C)n3], 96%; to `Nc1ccc2ncnc(Nc3ccc(OCc4cccc(F)c4)c(Cl)c3)c2c1` [MMV688273, Nc1ccc2ncnc(Nc3ccc(OCc4cccc(F)c4)c(Cl)c3)c2c1], 56%. The value for `COc1cccc(-n2nnnc2S(C)(=O)=O)c1` [Compound 63, COc1cccc(c1)n2nnnc2S(=O)(=O)C] was 103%. With `c1ccc(C[C@@H]2CN(c3nccc(Oc4ccc(-n5ccnc5)cc4)n3)CCN2)cc1` [MMV687749, C([C@@H]1CN(CCN1)c2nccc(Oc3ccc(cc3)n4ccnc4)n2)c5ccccc5], the viability at 10 µM is 60%.

As for `OCc1ccc(-c2cncc(Nc3cccc(Cl)c3)c2)cc1` [MMV026468, OCc1ccc(cc1)c2cncc(Nc3cccc(Cl)c3)c2], the viability at 10 µM is 88%. To `CN1CCC(c2cc(-c3ccncc3)c(-c3ccc(F)cc3)[nH]2)CC1` [MMV688703, CN1CCC(CC1)c1cc(c([nH]1)-c1ccc(F)cc1)-c1ccncc1] belongs 68%; to `CCOc1ccccc1C(=O)Nc1cccc(-c2nc3ncccn3c2C)c1` [MMV019790, CCOc1ccccc1C(=O)Nc2cccc(c2)c3nc4ncccn4c3C], 103%; to `O=C(Nc1ccc(N2CCNCC2)nc1)c1oc(-c2ccccc2)nc1C(F)(F)F` [MMV024937, FC(F)(F)c1nc(oc1C(=O)Nc2ccc(nc2)N3CCNCC3)c4ccccc4], 77%. As to `O=C(NCCN1CCCC1)c1cc(NCCN2CCOCC2)nc2ccc(Cl)cc12` [MMV634140, Clc1ccc2nc(cc(c2c1)C(=O)NCCN1CCCC1)NCCN1CCOCC1], the viability at 10 µM turned out to be 89%. `O=C(NCCN1CCCC1)c1cc(NCCCCN2CCC(F)(F)CC2)nc2ccc(Cl)cc12` [MMV667494, FC1(F)CCN(CCCCNc2cc(c3cc(ccc3n2)Cl)C(=O)NCCN2CCCC2)CC1]: the viability at 10 µM was 56%.

Take `Cc1cc(NC(=O)c2ccc(Oc3ccc(Cl)cc3O)o2)no1` [MMV688955, Cc1cc(NC(=O)c2ccc(Oc3ccc(Cl)cc3O)o2)no1]: the viability at 10 µM is 88%. `COc1ccc(C2=NCCN2)cc1-c1cn(-c2cccc(C3=NCCN3)c2)nn1` [MMV688547, COc1ccc(cc1c2cn(nn2)c3cccc(c3)C4=NCCN4)C5=NCCN5]: the viability at 10 µM is 77%.
